Measurements from patent US5041542A, “Substituted pyrimido[5,4-d]pyrimidine nucleosides” (Nucleic Acid Research Institute, priority 1988, dated 1991).
Converted amounts (≈) assume the structure as drawn. Like-named read-outs stand apart in the source and are kept apart here.

How the values were obtained:
WI-L2 cells = assay: In vitro cytotoxicity, WI-L2; type: cell-based; conditions: Homo sapiens, WIL2, 72 h; 3 days, 37° C., MTT; read-out: Antitumor (ID50) WI-L2
Description: (§1) ^b (ID50) inhibitory dose is the μM concentration of the
(§2) In vitro cytotoxicity analysis was performed by using the following cell lines: L1210 (a murine leukemia), WI-L2 (a human B-lymphoblast), and LoVo/L (a human colon carcinoma). Cells were grown in RPMI 1640 medium supplemented with 10% fetal bovine serum, 20 mM HEPES, pH 7.4, and 2 mM glutamine. The cytotoxicity determinations were carried out in 96-well microtiter dishes containing a starting number of 5-10×10^3 cells per well and 0.1-100 μM concentrations of the compounds in triplicate wells. L1210 and WI-L2 were incubated with the compounds at 37° C. for 3 days, while Lovo/L was incubated for 5 days. After this time period, 25 μL of 4 mg/mL 3-(4,5-dimethylthiazol-2-yl)-2,5-diphenyltetrazolium bromide was added to each well and incubation was continued for 2 to 5 h. The formazan product was dissolved in isopropanol containing 0.04M HCl and the absorbance was determined with a microtiter plate reader. The absorbance was proportional to the number of cells.

L1210 = assay: In vivo antitumor activity against L1210 in BDF1 mice; conditions: qd; for T/C: day 1, at maximum soluble dosage
Description: Compounds 8, 11, 14 and 17 were comparatively evaluated in vivo for efficacy against L1210 in BDF1 mice.
Mice were inoculated i.p. with 1×10^6 L1210 cells 24 hr before qd, day 1, i.p. drug delivery. Drugs were solubilized in water and delivered at the rate of 0.01 ml/g mouse weight. Then control mice/drug were injected i.p. with equivalent volumes of a 0.9% solution of NaCl, the means and standard deviations reflecting the postinoculation life spans of these mice ranged from 6.30±0.48 to 6.60±0.97 days.

[1] = system: vaccinia virus (Elstree strain); type: cell-based; conditions: HeLa cells; VR >1.0 marked, 0.5 to 0.9 moderate, <0.5 weak or no activity
physchem = conditions: water
[2] = Lethal toxicity in treated mice; conditions: i.p., maximum soluble dosage
[3] = system: parainfluenza 3 (C243 strain); assay: In vitro antiviral activity, parainfluenza 3 (virus rating); type: cell-based; conditions: Vero cells; VR >1.0 marked, 0.5 to 0.9 moderate, <0.5 weak or no activity
[4] = system: Herpes 2, parainfluenza 3 and Vaccinia; type: cell-based; conditions: tested in parallel with ARPP (8)
[5] = system: herpes simplex virus type 2 (MS strain); assay: In vitro antiviral activity, herpes simplex virus type 2 (virus rating); type: cell-based; conditions: Vero cells; VR >1.0 marked, 0.5 to 0.9 moderate, <0.5 weak or no activity
[6] = delivered at 0.01 ml/g mouse weight
L1210 cells = assay: In vitro cytotoxicity, L1210; type: cell-based, murine; conditions: Mus musculus, L1210, 72 h; 3 days, 37° C., MTT; read-out: Antitumor (ID50) L1210
Description: as §1, §2

LoVo/L cells = assay: In vitro cytotoxicity, LoVo/L; type: cell-based; conditions: Homo sapiens, 120 h, 5 days, 37° C., MTT, read-out: Antitumor (ID50) LoVo/L
Description: as §1, §2

[7] = system: de novo purine biosynthesis in WI-L2 cells; assay: Inhibition of de novo purine biosynthesis ([14C]formate incorporation); type: cell-based, human; conditions: for activity at 50 µM: pre-incubation 8 h
Description: Compounds of the invention were also tested for certain biochemical properties. Compounds of the invention were studied for their effect on de novo purine biosynthesis by observing inhibition of incorporation of [^14 C]formate into the acid-soluble fraction of WI-L2 cells (see Table 3). […] However, 8 and 14 (100 μM) were not cytotoxic to WI-L2 cells deficient in adenosine kinase activity.
A normal lymphoblast phenotype B cell line, WI-L2 was used. The enzyme-deficient cell lines used in vitro are: HPRT-, a hypoxanthine-guanine phosphorbosyl transferase (EC 2.4.2.8)deficient line and AK-, an adenosine kinase (EC 2.7.1.20)deficient line. Cells were cultured in RPMI 1640 medium containing 5% dialyzed fetal bovine serum, 20 mM Na HEPES, pH 7.5 and 2 mM glutamine and maintained in log phase growth between 0.5 and 12×10^5 cells/mL. The mutant cell lines were periodically reselected by treatment with 6-thioguanine (HPRT-) or tubercidin (AK-).
(§3) . Inhibition of de novo purine biosynthesis: WI-L2 or adenosine kinase-deficient cells were preincubated at 37° C. with drug for various time periods prior to labeling with [^14 C]formate. Enzyme Assays: Adenosine kinase inhibition studies were accomplished by the filter binding assay method. Inhibition studies were done at 37° C. with an assay mixture containing 4 mM ATP, 1.5 mM MgCl2, 5 or 10 μM [8-^14 C] adenosine (50 mCi/mmol) and 100 mM Tris-maleate, pH 5.5. To prevent the enzymatic breakdown of adenosine, erythro-9-(2-hydroxy-3-nonyl)adenine (EHNA) was added to the cell-free WI-L2 lysate to give 5 μM final assay concentration. The assay was started by the addition of protein. The amount of enzyme, time of assay and sampling volume were adjusted to give acceptable conversion of [8-^14 C] adenosine to [8-^14 C]AMP. Each DE-81 filter was spotted with a constant sampling volume and immersed in H 2 O (4 L) to terminate the reaction. Filters were washed three times with H2 O (4 L) and once with EtOH (100 mL). Dry filters were placed in scintillation vials and radioactivity was counted with 10 mL toluene-based scintillation cocktail.
De novo purine biosynthesis was measured by the incorporation of ^14 C-formate into cellular purine nucleotides or excreted purines after pre-incubation with compound.

[8] = Anomerization in aqueous solution (reverse-phase HPLC); type: physicochemical
Description: This would be expected where the rate of anomerization is slow compared to the rate of deamination.
The compounds of the invention are capable of crossing the cell membrane, and activated to the 5'-phosphate, thus causing the inhibition of the de novo purine biosynthesis.
as §3, with “HPLC Analysis: Sample components were separated with an LKB model 2150 gradient HPLC system at ambient temperature on an Altex Ultrashere-ODS reverse phase column (Beckman) developed with a linear gradient of buffer A (10 mM KPO4 ', pH 3.83) to 20% component B (60% aqueous CH3 CN) at a combined flow rate of 1.0 mL/min over 15 min. Ultraviolet (UV) absorbance was monitored with an LKB model 2140 diode array detector. Inhibition of” for “. Inhibition of”

[9] = system: pyrimidine (CTP + UTP) and purine (ATP + GTP) nucleoside triphosphates; assay: 14C-bicarbonate incorporation into acid soluble pyrimidine and purine nucleoside triphosphates; type: cell-based
Description: Comparative effect of compounds on ^14 C-bicarbonate
incorporation into acid soluble pyrimidine (PyrTP,
CTP + UTP) and purine (PurTP, ATP + GTP) nucleoside

[10] = Homo sapiens, WIL2, cell, read-out: de novo purine biosynthesis, % of control, cell, 50 μM
[11] = Homo sapiens, WIL2, media (excreted purines), read-out: de novo purine biosynthesis, % of control, media, 50 μM
[12] = read-out: PurTP, % control, 50.0 μM
[13] = read-out: PydTP, % control, 50.0 μM

Nc1ncnc2c(N[C@H]3O[C@H](CO)[C@@H](O)[C@H]3O)ncnc12 [Compound 11, 4-Amino-8-(α-D-ribofuranosylamino)pyrimido[5,4-d]pyrimidine]
IC50 (WI-L2 cells): 250 nM | Postinoculation Lifespan (% T/C), 22 mg/kg/inj. (L1210; 22 mg/kg/inj. i.p., day 1): 138 % T/C | T/C (L1210): 138 | Antiviral (VR) VV [1]: 1.0 VR | solubility (physchem): 2200 µg/mL (≈ 7.48 mM) | lethal toxicity at maximum soluble dosage [2]: Neither drug was lethally toxic at its maximum soluble dosage | Antiviral (VR) PI3 [3]: 1.4 VR | Antiviral activity in cell culture [4]: antiviral activity | Antiviral (VR) HSV2 [5]: 0.2 VR | Maximum watersoluble dosage [6]: 22 mg/kg/inj. | IC50 (L1210 cells): 380 nM | IC50 (LoVo/L cells): 1000 nM

COc1ncnc2c(N[C@H]3O[C@H](CO)[C@@H](O)[C@H]3O)ncnc12 [Compound 17, 4-Methoxy-8-(α-D-ribofuranosylamino)pyrimido[5,4-d]pyrimidine]
IC50 (WI-L2 cells): 2500 nM | Postinoculation Lifespan (% T/C), 37 mg/kg/inj. (L1210; 37 mg/kg/inj. i.p., day 1): 116 % T/C | T/C (L1210): 116 | Antiviral (VR) VV [1]: 0.9 VR | solubility (physchem): 3700 µg/mL (≈ 12 mM) | purine de novo assay, short term ([7]; 4 h): inactive | activity at 25 µM ([7]; Homo sapiens, WIL2, cell, 25 μM, pre-incubation 4 h, read-out: de novo purine biosynthesis, % of control, cell, 25 μM): 98.2% | purine de novo assay, longer incubation times ([7]; separate assays, longer incubation times): demonstrated the inhibitory activity | Antiviral (VR) PI3 [3]: 0.7 VR | Antiviral activity in cell culture [4]: antiviral activity | Antiviral (VR) HSV2 [5]: 0.1 VR | Maximum watersoluble dosage [6]: 37 mg/kg/inj. | IC50 (L1210 cells): 2900 nM | IC50 (LoVo/L cells): 18700 nM

O=c1[nH]cnc2c(N[C@@H]3O[C@H](CO)[C@@H](O)[C@H]3O)ncnc12 [Compound 21, 8-(β-D-Ribofuranosylamino)pyrimido[5,4-d]pyrimidin-4(3H)-one]
anomeric equilibration in solution [8]: equilibrated from pure β-anomer into a mixture of α- and β-anomers | activity at 50 µM [7, 10]: 98.2% | activity at 50 µM [7, 11]: 106% | PurTP, 50.0 μM [9]: 54484 cpm/10^6 cells | PyrTP, 50.0 μM [9]: 15691 cpm/10^6 cells | CAA (carbamyl aspartate), 50.0 μM ([9]; zero = undetectable): 0 cpm/10^6 cells | activity at 50 µM [9, 12]: 91.5% | activity at 50 µM [9, 13]: 72.3%

CN(C)c1ncnc2c(N[C@@H]3O[C@H](CO)[C@@H](O)[C@H]3O)ncnc12 [Compound 27, 4-Dimethylamino-8-(β-D-ribofuranosylamino)pyrimido[5,4-d]pyrimidine]
activity at 50 µM [7, 10]: 50.7% | activity at 50 µM [7, 11]: 85.8% | PurTP, 50.0 μM [9]: 40581 cpm/10^6 cells | PyrTP, 50.0 μM [9]: 10177 cpm/10^6 cells | CAA (carbamyl aspartate), 50.0 μM ([9]; zero = undetectable): 0 cpm/10^6 cells | activity at 50 µM [9, 12]: 68.2% | activity at 50 µM [9, 13]: 46.9%

Nc1nc(N[C@@H]2O[C@H](CO)[C@@H](O)[C@H]2O)c2ncnc(N)c2n1 [Compound 35, 4,6-Diamino-8-(β -D-ribofuranosylamino)pyrimido[5,4-d]pyrimidine]
activity at 50 µM [7, 10]: 91.2% | activity at 50 µM [7, 11]: 89.8% | PurTP, 50.0 μM [9]: 58130 cpm/10^6 cells | PyrTP, 50.0 μM [9]: 15267 cpm/10^6 cells | CAA (carbamyl aspartate), 50.0 μM ([9]; zero = undetectable): 0 cpm/10^6 cells | activity at 50 µM [9, 12]: 97.7% | activity at 50 µM [9, 13]: 70.4%

Nc1ncnc2c(N[C@@H]3O[C@H](CO)[C@@H](O)[C@H]3O)nc(Cl)nc12 [Compound 37, 4-Amino-6-chloro-8-(β-D-ribofuranosylamino)pyrimido[5,4-d]pyrimidine]
activity at 50 µM [7, 10]: 16.4% | activity at 50 µM [7, 11]: 43.4% | PurTP, 15.0 μM ([9]; 15.0 μM): 39833 cpm/10^6 cells | PyrTP, 15.0 μM ([9]; 15.0 μM): 13454 cpm/10^6 cells | CAA (carbamyl aspartate), 15.0 μM ([9]; 15.0 μM, zero = undetectable): 0 cpm/10^6 cells | activity at 15 µM ([9]; read-out: PurTP, % control, 15.0 μM): 66.9% | activity at 15 µM ([9]; read-out: PydTP, % control, 15.0 μM): 62%
